Among the data in patent publication US8022091B2, “Triazole derivative” (Taisho Pharmaceutical Co., Ltd., priority 2006, dated 2011) are inhibition, melting point and IC50 values, retold here.

The target in data set [1] is T1, human Edg-1 (S1P1) (Homo sapiens, UniProt P21453).
T1 construct: expressed in transfected cells; host or cells: HEK-293
Kind of data set: S1P1 binding assay: inhibition of [33P]-S1P binding to membrane fraction of HEK-293 cells transferred with the human Edg-1 (S1P1) gene. The following applies: for IC50: [33P]-S1P 0.1 nM, human Edg-1 (S1P1) HEK-293 membrane fraction, 1 h at 30° C., read-out: IC50 (concentration at which binding in the absence of the test compound was inhibited by 50%). A digest of the protocol: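 With 0.1 nM [33P]-S1P and compound (10^−5M single point, or a concentration range for IC50) in 0.1% DMSO, membrane fractions from human Edg-1-expressing HEK-293 cells were treated for one hour at 30° C in 20 mM Tris-HCl pH 7.4 with NaF, deoxypyridoxine and BSA. Bound label was measured after filtration, with untransfected-cell background subtracted.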

The mark [2] stands for this setting: test compound at 10 μM, inhibition of [33P]-S1P binding to the membrane fraction of HEK-293 cells expressing human Edg-1 (S1P1).
Setting [3] is: test compound 10 μM, inhibition of [33P]-S1P binding, membrane fraction.

As a reminder, the inhibition is the relative decrease from the control value, in per cent. The melting point is the temperature, or range, at which the solid turns liquid.

T1 sequence (P21453 whole entry): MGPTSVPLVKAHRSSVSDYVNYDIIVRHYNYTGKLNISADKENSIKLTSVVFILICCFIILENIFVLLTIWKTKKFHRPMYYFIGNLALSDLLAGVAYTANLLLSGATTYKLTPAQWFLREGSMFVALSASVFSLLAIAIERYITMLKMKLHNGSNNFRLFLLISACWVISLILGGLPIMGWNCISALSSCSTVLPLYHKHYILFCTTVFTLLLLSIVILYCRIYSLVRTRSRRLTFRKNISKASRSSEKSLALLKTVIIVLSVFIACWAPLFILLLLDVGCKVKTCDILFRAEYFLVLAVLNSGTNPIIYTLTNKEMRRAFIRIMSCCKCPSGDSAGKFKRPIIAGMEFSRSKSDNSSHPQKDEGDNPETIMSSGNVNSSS

Compound `CCn1c(Oc2ccccc2C)nnc1[C@@H](C)NS(=O)(=O)c1ccc(Cl)c(Cl)c1` [Compound 4] had a melting point of 198.5 to 200.5 °C. The inhibition at 10 µM in data set [1] (setting [2]) stood at 95.7%.

Take `CCn1c(Oc2ccc(F)cc2)nnc1[C@@H](C)NS(=O)(=O)c1ccc(C)c(C)c1` [Compound 126]: the melting point is 176.5 to 178 °C. Besides, in data set [1] (setting [2]), the inhibition at 10 µM came out at 91.8%.

`CCn1c(Oc2cccc(-n3cccc3)c2)nnc1[C@@H](C)NS(=O)(=O)c1ccc(Cl)c(Cl)c1` [Compound 86, 3,4-Dichloro-N-[(R)-1-[4-ethyl-5-(3-pyrrol-1-phenoxy)-4H-[1,2,4]triazol-3-yl]-ethyl]-benzenesulfonamide] had a melting point of 176 to 177 °C. The inhibition at 10 µM in data set [1] (setting [2]) was 107%.

Regarding `CCn1c(Oc2ccc3cccnc3c2)nnc1[C@@H](C)NS(=O)(=O)c1ccc(Cl)c(Cl)c1` [Compound 72], the melting point lay within 198 to 200.5 °C. The inhibition at 10 µM in data set [1] (setting [2]) came out at 99%.

The compound `CCn1c(Oc2cccc(N(C)CCN(C)C)c2)nnc1[C@@H](C)NS(=O)(=O)c1ccc(Cl)c(Cl)c1` [Compound 105] yielded a melting point of 121 to 123 °C. Also, the IC50 in data set [1] was found to be 0.0029 µM. In addition, the inhibition at 10 µM in data set [1] (setting [2]) was 104%.

Turning to `CCn1c(Oc2cccc(NS(=O)(=O)N(C)C)c2)nnc1[C@@H](C)NS(=O)(=O)c1ccc(Cl)c(Cl)c1` [Compound 101], the melting point was 142 to 143 °C. Also, in data set [1], the IC50 was not above 0.035 µM. For the same compound, in data set [1] (setting [2]), the inhibition at 10 µM came out at 101%.

For the compound `CCn1c(Oc2cccc(N3CCN(C)CC3)c2)nnc1C1(NS(=O)(=O)c2ccc(Cl)c(Cl)c2)CC1` [Compound 686], the melting point was 220.5 to 221 °C. The inhibition at 10 µM in data set [1] (setting [3]) amounted to 92.7%.

The compound `C[C@@H](NS(=O)(=O)c1ccc(Cl)c(Cl)c1)c1nnc(Oc2ccc3cc[nH]c3c2)n1C1CC1` [Compound 125] showed a melting point of 253.5 to 254.5 °C. Besides, the IC50 in data set [1] was not above 0.035 µM. Besides, in data set [1] (setting [2]), the inhibition at 10 µM came out at 94.3%.

The compound `CCn1c(Oc2ccc3ccncc3c2)nnc1[C@@H](C)NS(=O)(=O)c1ccc(Cl)c(Cl)c1` [Compound 54] gave a melting point of 192 to 193 °C. Moreover, the inhibition at 10 µM in data set [1] (setting [2]) is 104%.

The compound `CCn1c(Oc2cccc(N3CCN(C(C)C)CC3)c2)nnc1[C@@H](C)NS(=O)(=O)c1ccc2c(Cl)cccc2c1` [Compound 663] gave a melting point of 210 to 217 °C. The IC50 in data set [1] is not above 0.01 µM. Further, in data set [1] (setting [3]), the inhibition at 10 µM turned out to be 99.5%.

Compound `CCn1c(Oc2ccc(-n3cccc3)cc2)nnc1[C@@H](C)NS(=O)(=O)c1ccc(Cl)c(Cl)c1` [Compound 27] yielded a melting point of 163 to 168 °C. In addition, in data set [1] (setting [2]), the inhibition at 10 µM was 100%.

In turn, `CCn1c(Oc2cccc(N3CCN(C)CC3)c2)nnc1[C@@H](C)NS(=O)(=O)c1cc(F)cc(Cl)c1C` [Compound 145] returned a melting point of 150 to 152 °C. Besides, in data set [1], the IC50 is not above 0.035 µM. For the same compound, the inhibition at 10 µM in data set [1] (setting [2]) is 101%.

Consider `CCn1c(Oc2cc(C)c(C)c(C)c2)nnc1[C@@H](C)NS(=O)(=O)c1ccc(Cl)c(Cl)c1` [Compound 18], for which the melting point lay in the range of 189 to 194 °C. The IC50 in data set [1] is not above 0.035 µM. Moreover, in data set [1] (setting [2]), the inhibition at 10 µM amounted to 102%.

`Cc1ccc(Oc2nnc([C@@H](C)NS(=O)(=O)c3ccc(Cl)c(Cl)c3)n2C)cc1` [Compound 58] came in with a melting point of 181 to 183 °C. Also, the inhibition at 10 µM in data set [1] (setting [2]) is 99.7%.

`CCn1c(Oc2cccc(NC(=O)N3CCOCC3)c2)nnc1[C@@H](C)NS(=O)(=O)c1ccc(Cl)c(Cl)c1` [Compound 98] had a melting point of 143 to 144 °C. Also, the inhibition at 10 µM in data set [1] (setting [2]) was 100%.

For `CCn1c(Oc2cccc(N3CCN(C)CC3)c2)nnc1[C@@H](C)NS(=O)(=O)c1ccc2c(S(C)(=O)=O)cccc2c1` [Compound 693], the melting point was 158 to 161 °C. The inhibition at 10 µM in data set [1] (setting [3]) came to 97.7%.

Turning to `CCn1c(Oc2cccc(N3CCN(C)CC3)c2)nnc1[C@@H](C)NS(=O)(=O)c1ccc2c(Cl)cccc2c1` [Compound 120], the melting point fell in the range of 211.5 to 216.5 °C. Further, the IC50 in data set [1] is 0.0017 µM. Also, the inhibition at 10 µM in data set [1] (setting [2]) amounted to 93%.

Consider `CCn1c(Oc2cccc(N3CCC(O)CC3)c2)nnc1[C@@H](C)NS(=O)(=O)c1ccc(Cl)c(Cl)c1` [Compound 93, 3,4-Dichloro-N-((R)-1-[4-ethyl-5-[3-(4-hydroxy-piperidin-1-yl)-phenoxy]-4H-[1,2,4]triazol-3-yl]-ethyl)-benzenesulfonamide], for which the melting point was 167.5 to 169.5 °C. Moreover, the IC50 in data set [1] was not above 0.01 µM. Moreover, in data set [1] (setting [2]), the inhibition at 10 µM came out at 99.9%.

As to `CCn1c(Oc2cccc(OCCN(C)C)c2)nnc1[C@@H](C)NS(=O)(=O)c1ccc(Cl)c(Cl)c1` [Compound 106], the melting point lay within 132 to 134 °C. The inhibition at 10 µM in data set [1] (setting [2]) was determined as 110%.

Compound `CCn1c(Oc2ccccc2)nnc1[C@@H](C)NS(=O)(=O)c1ccc(Cl)c(Cl)c1` [Compound 7] yielded a melting point of 159.5 to 161.5 °C. In addition, in data set [1], the IC50 was 0.0355 µM. In addition, the inhibition at 10 µM in data set [1] (setting [2]) is 99.4%.

`CCCCc1ccc(Oc2nnc([C@@H](C)NS(=O)(=O)c3ccc(Cl)c(Cl)c3)n2CC)cc1` [Compound 32] gave a melting point of 147 to 148 °C. Also, the IC50 in data set [1] is not above 0.035 µM. Besides, the inhibition at 10 µM in data set [1] (setting [2]) amounted to 104%.

The compound `COc1ccc(Oc2nnc([C@@H](C)NS(=O)(=O)c3ccc(Cl)c(Cl)c3)n2C2CC2)cc1` [Compound 38] displayed a melting point of 148.5 to 150 °C. For the same compound, the IC50 in data set [1] was found to be 0.0117 µM. Moreover, in data set [1] (setting [2]), the inhibition at 10 µM was 105%.

For `CCn1c(Oc2ccc(C)cc2)nnc1[C@@H](Cc1ccccc1)NS(=O)(=O)c1ccc(Cl)c(Cl)c1` [Compound 10], the melting point fell in the range of 182.5 to 184.5 °C. Besides, in data set [1], the IC50 was 0.0175 µM. Moreover, the inhibition at 10 µM in data set [1] (setting [2]) came to 99.8%.

For the compound `CCn1c(Oc2ccc(F)cc2)nnc1[C@@H](C)N(CC(=O)O)S(=O)(=O)c1ccc(Cl)c(Cl)c1` [Compound 684], the melting point was 169.5 to 171.5 °C.

`CCn1c(Oc2cccc(C(C)C)c2)nnc1[C@@H](C)NS(=O)(=O)c1ccc(Cl)c(Cl)c1` [Compound 40] registered a melting point of 155.5 to 156.5 °C. The IC50 in data set [1] is not above 0.01 µM. For the same compound, in data set [1] (setting [2]), the inhibition at 10 µM was 106%.

`CCn1c(Oc2ccc(C(C)C)cc2)nnc1[C@@H](C)NS(=O)(=O)c1ccc(Cl)c(Cl)c1` [Compound 39] had a melting point of 176 to 178 °C. In addition, the IC50 in data set [1] is not above 0.01 µM. Also, the inhibition at 10 µM in data set [1] (setting [2]) is 98.5%.

As to `CCn1c(Oc2ccc3cc[nH]c3c2)nnc1[C@@H](C)NS(=O)(=O)c1ccc(C)c(Cl)c1` [Compound 132], the melting point lay in the range of 95 to 104 °C. Further, the IC50 in data set [1] is not above 0.01 µM. Moreover, in data set [1] (setting [2]), the inhibition at 10 µM amounted to 99.5%.

Compound `CCn1c(Oc2ccc3ccccc3c2)nnc1[C@@H](C)NS(=O)(=O)c1ccc(Cl)c(Cl)c1` [Compound 42] had a melting point of 176.5 to 179.5 °C. The IC50 in data set [1] turned out to be 0.022 µM. In addition, the inhibition at 10 µM in data set [1] (setting [2]) is 102%.

On to `CCn1c(Oc2ccc(F)cc2)nnc1[C@@H](C)NS(=O)(=O)c1ccc(F)c(Cl)c1` [Compound 103], for which the melting point was 146.5 to 147.5 °C. Moreover, the inhibition at 10 µM in data set [1] (setting [2]) was determined as 91.2%.

Take `CCn1c(Oc2ccc(N3CCN(C)CC3)cc2)nnc1[C@@H](C)NS(=O)(=O)c1ccc(Cl)c(Cl)c1` [Compound 52]: the melting point is 203 to 205 °C. Also, the inhibition at 10 µM in data set [1] (setting [2]) was 100%.

Regarding `CCn1c(Oc2cccc3ccccc23)nnc1[C@@H](C)NS(=O)(=O)c1ccc(Cl)c(Cl)c1` [Compound 41], the melting point fell in the range of 166 to 170 °C. Further, the inhibition at 10 µM in data set [1] (setting [2]) is 92%.

For the compound `CCn1c(Oc2ccccc2Cl)nnc1[C@@H](C)NS(=O)(=O)c1ccc(Cl)c(Cl)c1` [Compound 6], the melting point was in the range of 180 to 190 °C. Also, the inhibition at 10 µM in data set [1] (setting [2]) was found to be 98.2%.

In the case of `CCn1c(Oc2ccc(F)cc2)nnc1[C@@H](C)NS(=O)(=O)c1ccc(Cl)c(Cl)c1` [Compound 12, 3,4-Dichloro-N-{(R)-1-[4-ethyl-5-(4-fluorophenoxy)-4H-[1,2,4]-triazol-3-yl]ethyl}benzenesulfonamide], the melting point lay in the range of 190 to 192 °C. The IC50 in data set [1] was found to be 0.02 µM. Besides, in data set [1] (setting [2]), the inhibition at 10 µM worked out at 99.2%.

`CCn1c(Oc2cccc(N3CCN(C)CC3)c2)nnc1[C@@H](C)NS(=O)(=O)c1ccc2cc(Cl)ccc2c1` [Compound 664] gave a melting point of 218 to 221.5 °C. Besides, the inhibition at 10 µM in data set [1] (setting [3]) worked out at 85.4%.

Regarding `CCn1c(Oc2ccc(OC)cc2)nnc1[C@@H](C)NS(=O)(=O)c1ccc2ccccc2c1` [Compound 140], the melting point was 110 to 119 °C. Also, the IC50 in data set [1] was not above 0.01 µM. Further, the inhibition at 10 µM in data set [1] (setting [2]) is 102%.

In the case of `CCn1c(Oc2ccc3ncccc3c2)nnc1[C@@H](C)NS(=O)(=O)c1ccc(Cl)c(Cl)c1` [Compound 78], the melting point is 178 to 179 °C. Further, the inhibition at 10 µM in data set [1] (setting [2]) was 90.7%.

`CCn1c([C@@H](C)NS(=O)(=O)c2ccc(Cl)c(Cl)c2)nnc1S(=O)(=O)c1ccc(C)cc1` [Compound 57, 3,4-Dichloro-N-[(R)-1-[4-ethyl-5(4-methylbenzenesulfonyl)-4H-[1,2,4]triazol-3-yl]-ethyl]-benzenesulfonamide]: the melting point lay within 164 to 165 °C.

Turning to `CCn1c(Oc2cccc(N3CCN(C)CC3)c2)nnc1[C@@H](C)NS(=O)(=O)c1ccc(F)cc1` [Compound 516], in data set [1] (setting [3]), the inhibition at 10 µM came to 107%.

Consider `CCn1c(Oc2cccc(N3CCN(C)CC3)c2)nnc1[C@@H](C)NS(=O)(=O)c1ccc(F)cc1C` [Compound 613], for which the inhibition at 10 µM in data set [1] (setting [3]) came out at 90.9%.
